{"source": "patent US20240035033A1", "about": "“PREVENTION AND TREATMENT OF AGE-RELATED MACULAR DEGENERATION THROUGH SUPPRESSION OF CATHEPSIN S EXPRESSION” (CHUNG-ANG UNIVERSITY INDUSTRY-ACADEMIC COOPERATION …, priority 2022, published 2024)", "assay_type_in_all_cases": "cell-based, human", "key": {"[1]": {"tested_on": "C3a and C5a", "assay": "immunofluorescence analysis of C3a and C5a expression in RPE cells", "conditions": "siRNA 24 hours, Bay 1170-82 10 μM, control DMSO / control siRNA", "procedure": "In order to confirm the inhibitory effect of complement activity in the case of treatment with an inhibitor of cathepsin S expression or activity, RPE cells were treated with cathepsin S siRNA (CTSS siRNA, CTSSiRNA) and then the effect of inhibiting complement activity was analyzed. At this time, NF-κB inhibitor were treated as a comparison group. Specifically, RPE cells were treated with control siRNA or CTSS siRNA for 24 hours in the presence or absence of NF-κB inhibitor Bay 1170-82 (10 μM), respectively. After that, immunofluorescence analysis was performed for the expression of C3a and C5a in RPE cells. Experimental methods and conditions were applied in the same manner as in Example 3."}, "[2]": {"tested_on": "ARPE-19 cells", "assay": "MTT viability of RPE cells according to H2O2 treatment", "conditions": "H2O2 6.25-100 μM, 48 hours, compared to the control", "procedure": "In order to confirm the decrease in viability of retinal pigment epithelium cells (RPE cells, hereinafter referred to as RPE cells) according to H2O2 treatment, MTT analysis was performed, and the viability and iNOS expression of RPE cells according to H2O2 treatment were confirmed.\nFirst, a human retinal-pigmented epithelial cell line (hereinafter referred to as ARPE-19 cells (ATCC, Manassas, VA, USA)) was used and inoculated into 96-well plates and cultured for 24 hours. Thereafter, the cells were treated with 6.25 μM 12.5 μM, 25 μM, 50 μM, and 100 μM H2O2 for 48 hours, a 3-(4,5-dimethylthiazol-2-yl)-2,5-diphenyl-tetrazolium bromide (MTT) solution was added to the medium, and the cells were cultured at 37° C. for 4 hours. The MTT-comprising medium was removed and the cells were lysed in 50 μl of DMSO. An optical density at 540 nm was confirmed using a microplate spectrophotometer (SpectraMax; Molecular Devices, Sunnyvale, CA, USA), and cell viability was determined by repeating each experiment three times to calculate an average value."}, "[3]": {"tested_on": "PPARγ and VEGFA/AKT", "assay": "western blot of angiogenic factors in RPE cells", "conditions": "RPE cells treated with H2O2", "text": "(§1) In the case of treatment with an inhibitor of cathepsin S expression or activity, it was confirmed whether angiogenesis in RPE cells induced by oxidative stress was reduced. Specifically, the expression levels of PPARγ and VEGFA/AKT, which play key roles in neovascularization, differentiation, migration, and proliferation, were confirmed through western blotting experiments, and the experimental methods and conditions were applied in the same manner as in Example 2. In addition, to confirm the presence or absence of cell tube formation, HUVECs (1×10^5) were treated on a Matrigel-coated 96-well-plate with reduced growth factors, and then the cells were treated with a conditioned medium (CM) for 2 hours by treating RPE cells with CTSS siRNA and H2O2 at 37° C. for 48 hours, and images were analyzed with an inverted fluorescence microscope."}, "[4]": {"tested_on": "iNOS", "assay": "iNOS expression in RPE cells according to H2O2 treatment (RT-PCR, western blot)", "procedure": "In addition, the expression level of iNOS expressed in RPE cells according to H2O2 treatment was analyzed. Specifically, after RPE cells were treated with 10 μM, 50 μM, and 100 μM H2O2, relative iNOS mRNA expression levels were confirmed, and western blot experiments were performed. Total RNA was prepared using a Ribospin™ II kit from GeneAll Biotechnology (Seoul, South Korea) according to the manufacturer's recommendations. Total RNA (1 μg) was reverse transcribed into first-strand cDNA using an iScript™ cDNA Synthesis kit (Bio-Rad Laboratories, Inc., California, USA) according to the manufacturer's instructions, real-time reverse transcription-polymerase chain reaction (RT-PCR) was performed using a Thermal Cycler CFX96™ Real-Time PCR System (Bio-Rad Laboratories, USA), and each experiment was repeated three times to derive the results. RPE cells were washed with ice-cold PBS and then extracted with a protein lysis buffer (Intron Biotechnology, Seoul, South Korea). Protein samples of cell lysates were mixed with an equal volume of 2×SDS sample buffer, denatured by heating for 5 minutes and then separated on a 10% SDS-PAGE gel. After electrophoresis, proteins were transferred to a polyvinylidene difluoride membrane, and the membrane was blocked and washed using 5% BSA for 40 minutes. […]"}, "[5]": {"tested_on": "cathepsin S (CTSS)", "assay": "immunofluorescence analysis of cathepsin S in RPE cells", "conditions": "H2O2 50 μM, 48 hours", "procedure": "Immunofluorescence analysis was performed to confirm the suppression of cathepsin S in cathepsin S knockdown RPE cells of Example 3-1. Specifically, after cells prepared in the same manner as in the mRNA expression level analysis were washed twice with sterile PBS and fixed with 4% paraformaldehyde at room temperature for 30 minutes, the fixation was stopped by washing the cells three times with PBS. The cells were permeabilized with PBS comprising 0.01% Triton X-100 […]. After blocking for 1 hour, the insert membrane was removed using a scalpel and placed on Parafilm prior to being incubated with a primary antibody (depending on the protein of interest). All primary antibodies were diluted 1:50 in 5% BSA and PBS and used, and cultured at 4° C. overnight. Thereafter, the cells were washed three times with PBS and a secondary FITC- or TRITC-conjugated antibody was diluted 1:50 and applied at room temperature for 1 hour. After 1 mg/ml DAPI was added 10 minutes before removing a secondary antibody to stain the nuclei, the cells were coated with a mounting medium and a glass coverslip was placed on top. The membrane/coverslip was fixed to the glass slide using a mounting medium, and cells were observed under a fluorescence microscope (Leica DFC7000T)."}, "[6]": {"tested_on": "cathepsin S (CTSS)", "assay": "cathepsin S expression in RPE cells under oxidative stress (mRNA, western blot)", "procedure": "To confirm the expression of cathepsin S (CTSS) in RPE cells under oxidative stress conditions, RPE cells were treated with H2O2 and the expression of cathepsin S (CTSS) was determined. Specifically, the cells was treated with 10 μM and 50 μM H2O2, cathepsin S mRNA expression level analysis and western blot experiments were performed in order to confirm the expression of cathepsin S, and the same experimental method and conditions as in Example 1 were applied, except that cathepsin S-specific antibodies were used."}, "[7]": {"tested_on": "HUVECs", "assay": "tube formation of HUVECs treated with conditioned medium of RPE cells", "conditions": "conditioned medium of H2O2-treated control RPE cells, 2 hours", "text": "as §1"}}}
{"molecule": "Cc1ccc(S(=O)(=O)/C=C/C#N)cc1", "note": "[Bay 1170-82]", "values": [{"measurement": "expression of C3a (immunofluorescence)", "setting": "[1]", "value": "suppressed"}, {"measurement": "expression of C5a (immunofluorescence)", "setting": "[1]", "value": "suppressed"}]}
{"molecule": "OO", "note": "[H2O2]", "values": [{"measurement": "cell viability (MTT)", "setting": "[2]", "value": "decrease in cell viability"}, {"measurement": "expression level of PPARγ (western blot)", "setting": "[3]", "value": "increased"}, {"measurement": "expression level of VEGFA/AKT (p-AKT) (western blot)", "setting": "[3]", "value": "increased"}, {"measurement": "relative iNOS mRNA levels", "setting": "[4]; RPE cells, 50 μM and 100 μM H2O2", "value": "increased"}, {"measurement": "iNOS protein (western blot)", "setting": "[4]; RPE cells, 10, 50, 100 μM H2O2", "value": "increased in a H2O2 concentration-dependent manner"}, {"measurement": "cathepsin S expression (red fluorescence)", "setting": "[5]", "value": "significantly increased"}, {"measurement": "cathepsin S protein band (western blot)", "setting": "[6]; 10 μM and 50 μM H2O2", "value": "appeared thick and dark"}, {"measurement": "relative mRNA level of cathepsin S", "setting": "[6]; 10 μM and 50 μM H2O2, vs control", "value": "higher than that of the control"}, {"measurement": "tube formation", "setting": "[7]", "value": "marked increase in tube formation"}]}
